The values that follow come from patent US20130059850A1, “AZA-INDOLE DERIVATIVES USEFUL AS MODULATORS OF FAAH” (MERCK SHARP & DOHME CORP., priority 2010, published 2013).

In assay [1] the target is T1, human FAAH (Fatty Acid Amide Hydrolase) (Homo sapiens, UniProt O00519).
T1 construct: The full length FAAH was subcloned into the mammalian expression vector, pcDEF.neo, using XbaI and EcoRI restriction sites; expressed in transfected cells
T1 sequence (O00519 1-579): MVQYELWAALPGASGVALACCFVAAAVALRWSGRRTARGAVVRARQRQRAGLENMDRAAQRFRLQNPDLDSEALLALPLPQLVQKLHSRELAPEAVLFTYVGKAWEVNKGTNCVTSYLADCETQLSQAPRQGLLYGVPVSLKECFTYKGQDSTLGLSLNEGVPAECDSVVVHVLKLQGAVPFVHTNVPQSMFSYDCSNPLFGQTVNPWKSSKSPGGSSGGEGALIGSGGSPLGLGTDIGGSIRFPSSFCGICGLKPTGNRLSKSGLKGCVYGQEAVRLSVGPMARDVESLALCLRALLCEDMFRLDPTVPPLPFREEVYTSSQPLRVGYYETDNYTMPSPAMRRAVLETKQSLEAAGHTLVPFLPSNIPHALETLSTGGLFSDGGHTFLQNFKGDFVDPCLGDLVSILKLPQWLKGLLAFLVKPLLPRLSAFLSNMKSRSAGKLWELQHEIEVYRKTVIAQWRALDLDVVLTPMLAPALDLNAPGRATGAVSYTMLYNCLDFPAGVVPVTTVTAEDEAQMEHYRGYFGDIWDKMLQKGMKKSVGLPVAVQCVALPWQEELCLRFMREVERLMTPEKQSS
Kind of assay: FAAH whole cell assay on CHO cells expressing human FAAH (human WC), AAMCA fluorescent substrate. It counts as cell-based. As to conditions: human FAAH_CHO whole cell. An excerpt:
(§1) To assist in assay development stable cell lines for human, murine and rat full length FAAH were developed. Human FAAH cDNA (Accession No: NM_001441.1) was purchased from Origene (Rockville, Md.). The full length FAAH was subcloned into the mammalian expression vector, pcDEF.neo, using XbaI and EcoRI restriction sites and used for stable cell line generation.
Murine (accession number NM_010173) and Rat FAAH (accession number NM_024132) was amplified by reverse transcriptase polymerase chain reaction (RT-PCR) from brain cDNA (BD Biosciences, San Jose, Calif.) using primers 1 and 2 or primers 1 and 3 respectively (see Table). The resulting PCR product was ligated into pCR4 TOPO and DNA sequence confirmed. The full length murine FAAH was subcloned into the mammalian expression vector, pcDEFneo using either EcoRI (murine) or KpnI and EcoRI (rat) restriction sites. Chinese hamster ovary cells (CHO) were transfected following manufacturers protocol (AMAXA). Forty eight hours post transfection, cells were trypsinized and transferred to 96 well plates in Iscove's DMEM media supplemented with 2 mM Glutamine, 10% fetal calf serum, 1 mg/ml geneticin and HT Supplement (0.1 mM sodium hypoxanthine, 0.016 mM thymidine) in order to isolate single clones. Following selection in geneticin, individual clones were selected and FAAH activity was assessed using a whole cell fluorescent anandamide assay, modified from Ramarao et al (2005). Following removal of tissue culture media cells were dislodged following addition of Cellstripper (Mediatech, Inc. Manassas, Va.) and transferred to 96 well black clear bottom assay plate, centrifuged at 1,000 rpm for 3 mins and media removed and replaced with assay buffer (50 mM Tris pH8.0, 1 mM EDTA, 0.1% fatty acid free BSA). The reaction was initiated by addition of fluorescent substrate, AMC Arachidonoyl Amide (Cayman Chemical, Ann Arbor, Mich.) to 1 μM and reaction allowed to proceed for 2 hours at room temperature. Release of fluorescence was monitored in a CytoFluor Multiplate Reader. Cells expressing the highest amount of FAAH activity were selected for study with FAAH inhibitors.
(§2) (American Radiolabeled Chemicals; 1 mCi/ml) with FAAH (Life Sciences (1995), 56, 1999-2005 and Journal of Pharmacology and Experimented Therapeutics (1997), 283, 729-734), Analytical. Biochemistry (2003), 318, 270-5. In addition, routine assays were performed monitoring hydrolysis of arachidonyl-7-amino-4-methylcoumarin amide (AAMCA) by following increase in fluorescence upon release of 7-amino 4-methyl coumarin (λEX=355 nm, μEM=460 nm). Analytical. Biochemistry (2005). 343, 143-51
Assays are performed on either cell lysate or microsome fractions prepared as described or in whole cell format employing either the fluorescent substrate AAMCA (Cayman chemical, Ann Arbor, Mich.,) or ^3H-anandamide ([ETHANOLAMINE-1-3H] American Radiolabeled Chemicals; 1 mCi/ml). The cell lysate or microsome assay is performed in black PerkinElmer OptiPlates-384F by adding FAAH_CHO (whole cell (human whole cell or human WC), cell lysate (human cell lysate or human LY) or microsome) in assay buffer (50 mM Phosphate, pH 8.0, 1 mM EDTA, 200 mM KCl, 0.2% glycerol, 0.1% fatty acid free BSA) to each well, followed by either DMSO or compound and allowed to incubate at 22-25° C. for fifteen minutes. AAMCA substrate was used to achieve a final concentration of 1 μM and reaction allowed to proceed at room temperature for 1-3 hours. Fluorescent release as a measure of FAAH activity was monitored by reading the plate in a Envision plate Reader (Ex: 360/40 nM; Em: 460/40 nM). Whole cell assay is conducted with cells harvested after rinsing tissue culture flasks three times with Ca^++Mg^++ free PBS, incubating for […] in Enzyme free dissociation media and centrifuging for 5 minutes at 1,000 rpm in table top centrifuge. […]

Assay [2] deals with T1, human FAAH (Fatty Acid Amide Hydrolase). Kind of assay: FAAH enzyme assay on CHO cell lysate expressing human FAAH (human LY), AAMCA fluorescent substrate. The conditions noted are these: human FAAH_CHO cell lysate. The class given is biochemical.
From the text: as §1
CHO cells expressing FAAH were used to prepare either crude cell lysate or microsome fractions. To harvest cells, tissue culture media was decanted, the monolayer washed three times with Ca^++Mg^++ free PBS and cells recovered after […] in enzyme free dissociation media (Millipore Corp, Billerica, Mass.). Cells were collected by centrifuging at 2000 rpm for 15 min. and the cell pellet re-suspended with 50 mM HEPES (pH 7.4) containing 1 mM EDTA and the protease inhibitors aprotinin (1 mg/ml) and leupeptin (100 μM). The suspension was sonicated at 4° C. and the cell lysate recovered after centrifuging at 12,000×g (14,600 rpm, SS34 rotor) for 20 min at 4° C. to form a crude pellet of cell debris, nuclei, peroxisomes, lysosomes, and mitochondria; the supernatant or cell lysate was used for FAAH enzyme assay. In some cases, microsomes fractions enriched in FAAH were prepared by centrifuging the cell lysate further at 27,000 rpm (100,000×g) in SW28 rotor for 50 minutes at 4° C. The pellet containing FAAH-enriched microsomes was re-suspend in 50 mM HEPES, (pH 7.4) 1 mM EDTA, and any remaining DNA sheared by passage of material through a 23 gauge needle and aliquots of enzyme were store at −80° C. prior to use.
as §2
Assays are performed on either cell lysate or microsome fractions prepared as described or in whole cell format employing either the fluorescent substrate AAMCA (Cayman chemical, Ann Arbor, Mich.,) or ^3H-anandamide ([ETHANOLAMINE-1-3H] American Radiolabeled Chemicals; 1 mCi/ml). The cell lysate or microsome assay is performed in black PerkinElmer OptiPlates-384F by adding FAAH_CHO (whole cell (human whole cell or human WC), cell lysate (human cell lysate or human LY) or microsome) in assay buffer (50 mM Phosphate, pH 8.0, 1 mM EDTA, 200 mM KCl, 0.2% glycerol, 0.1% fatty acid free BSA) to each well, followed by either DMSO or compound and allowed to incubate at 22-25° C. for fifteen minutes. AAMCA substrate was used to achieve a final concentration of 1 μM and reaction allowed to proceed at room temperature for 1-3 hours. Fluorescent release as a measure of FAAH activity was monitored by reading the plate in a Envision plate Reader (Ex: 360/40 nM; Em: 460/40 nM). Whole cell assay is conducted with cells harvested after rinsing tissue culture flasks three times with Ca^++Mg^++ free PBS, incubating for […] in Enzyme free dissociation media and centrifuging for 5 minutes at 1,000 rpm in table top centrifuge. Cells are resuspended in assay buffer at desired cell number in (4×10^4 cells/assay in 96-well format; 1×10^4 cells/assay in 384-well format) and assayed as described.

With `C[S+]([O-])c1ccc(-c2[nH]c3ncccc3c2Sc2ccc(Cl)cc2)cn1` (centres unmarked) [Example A36, 3-[(4-chlorophenyl)sulfanyl]-2-[6-(methylsulfinyl)pyridin-3-yl]-1H-pyrrolo[2,3-b]pyridine], the figures for the 50% inhibitory concentration (IC50) in assay [1] and in assay [2] were 28.9 nM and 3.35 nM, respectively.
`Clc1ccc(Sc2c(-c3ccc4c(c3)OCO4)[nH]c3ncccc23)cc1` [Example B4, 2-(1,3-benzodioxol-5-yl)-3-[(4-chlorophenyl)sulfanyl]-1H-pyrrolo[2,3-b]pyridine]: the IC50 (as a rule, the concentration that inhibits the measured activity by half) in assay [1] was determined as 4.62 nM; in assay [2], 0.508 nM.
With `Clc1ccc(Sc2c(-c3ccc4c(c3)OCO4)[nH]c3ncccc23)nc1` [Example B5, 2-(1,3-benzodioxol-5-yl)-3-[(5-chloropyridin-2-yl)sulfanyl]-1H-pyrrolo[2,3-b]pyridine], the 50% inhibitory concentration (IC50) in assay [1] turned out to be 13.7 nM; in assay [2], 2.58 nM.
In the same order, the values of `Clc1ccc(Sc2c(-c3ccc4c(c3)OCCO4)[nH]c3ncccc23)cc1` [Example B6, 3-[(4-chlorophenyl)sulfanyl]-2-(2,3-dihydro-1,4-benzodioxin-6-yl)-1H-pyrrolo[2,3-b]pyridine] are 11.8 nM and 4.42 nM.
Consider `COc1cccc(-c2[nH]c3ncccc3c2Sc2ccc(Cl)cc2)c1` [Example B7], for which the half-maximal inhibitory concentration (IC50) in assay [1] was 18.8 nM; in assay [2], 2.23 nM.
As to `COc1ccc(-c2[nH]c3ncccc3c2Sc2ccc(Cl)cc2)cc1` [Example B8], the concentration for half-maximal inhibition (IC50) in assay [1] is 10.3 nM; in assay [2], 2.34 nM.
In the same order, the values of `COc1ccc(-c2[nH]c3ncccc3c2Sc2ccc(Cl)cc2)cc1OC` [Example B9] are 3.83 nM and 1.43 nM.
In the same order, the values of `Clc1ccc(Sc2c(-c3cccc4[nH]ccc34)[nH]c3ncccc23)cc1` [Example B10] are 20.7 nM and 3.88 nM.
In the same order, the values of `Cn1ccc2cc(-c3[nH]c4ncccc4c3Sc3ccc(Cl)cc3)ccc21` [Example B11] are 10.2 nM and 3.29 nM.
For `CC(O)c1ccc(-c2[nH]c3ncccc3c2Sc2ccc(Cl)cc2)cc1` (centres unmarked) [Example B12], the values for the IC50 in assay [1] and in assay [2] were 27.1 nM and 11.6 nM, respectively.
Turning to `Clc1ccc(Sc2c(-c3ccc4c(c3)OCCO4)[nH]c3ncccc23)nc1` [Example B13], the results for the half-maximal inhibitory concentration (IC50) in assay [1] and in assay [2] were 13 nM and 2.89 nM, respectively.
The corresponding values for `COc1ncc(-c2[nH]c3ncccc3c2Sc2ccc(Cl)cc2)c(OC)n1` [Example B14] are 47.4 nM and 9.47 nM.
The corresponding values for `Clc1ccc(Sc2c(C3=CCCC3)[nH]c3ncccc23)cc1` [Example B15] are 1110 nM and 107 nM.
The corresponding values for `N#CC1CC=C(c2[nH]c3ncccc3c2Sc2ccc(Cl)cc2)CC1` (centres unmarked) [Example B16] are 119 nM and 21.7 nM.
As for `Clc1ccc(Sc2c(C3=CCCOC3)[nH]c3ncccc23)cc1` [Example B17], the IC50 in assay [1] stood at 190 nM; in assay [2], 31.9 nM.
In the same order, the values of `COc1ccc(-c2[nH]c3ncccc3c2Sc2ccc(Cl)cc2)c(OC)n1` [Example B18] are 124 nM and 23.2 nM.
In the same order, the values of `Cc1n[nH]c(C)c1-c1[nH]c2ncccc2c1Sc1ccc(Cl)cc1` [Example B19] are 364 nM and 65.6 nM.
In the case of `Cn1cc(-c2[nH]c3ncccc3c2Sc2ccc(Cl)cc2)cn1` [Example B20], the concentration for half-maximal inhibition (IC50) in assay [1] was determined as 4160 nM; in assay [2] it was 238 nM.
In the case of `Clc1ccc(Sc2c(-c3ccnc4[nH]ccc34)[nH]c3ncccc23)cc1` [Example B27], the IC50 in assay [1] amounted to 30 nM; in assay [2], 3.18 nM.
The corresponding values for `Clc1ccc(Sc2c(-c3ccsc3)[nH]c3ncccc23)cc1` [Example B28] are 1520 nM and 217 nM.
The corresponding values for `CC(=O)c1ccc(-c2[nH]c3ncccc3c2Sc2ccc(Cl)cc2)s1` [Example B29] are 41.1 nM and 10.2 nM.
In the case of `Cc1noc(C)c1-c1[nH]c2ncccc2c1Sc1ccc(Cl)cc1` [Example B30], the half-inhibitory concentration (IC50) worked out at 1110 nM in assay [1] and 208 nM in assay [2].
Turning to `Clc1ccc(Sc2c(-c3cnn4c3CCC4)[nH]c3ncccc23)cc1` [Example B31], the concentration for half-maximal inhibition (IC50) in assay [1] turned out to be 686 nM; in assay [2] it was 113 nM.
Consider `N#Cc1cscc1-c1[nH]c2ncccc2c1Sc1ccc(Cl)cc1` [Example B32], for which the half-inhibitory concentration (IC50) was determined as 438 nM in assay [1] and 94.8 nM in assay [2].
The corresponding values for `Clc1ccc(Sc2c(-c3cccs3)[nH]c3ncccc23)cc1` [Example B33] are 8540 nM and 464 nM.
